Assays:
Assay type in all cases: functional
[1] = test system: CCRF-CEM; experiment: Growth inhibition of human CCRF-CEM cells after 48 hrs by SRB protein assay
[2] = test system: RPMI-8226; experiment: Growth inhibition of human RPMI8226 cells after 48 hrs by SRB protein assay; details: RPMI-8226, 48 h
[3] = test system: A549; experiment: Growth inhibition of human A549 cells after 48 hrs by SRB protein assay; details: A549, 48 h
[4] = test system: EKVX; experiment: Growth inhibition of human EKVX cells after 48 hrs by SRB protein assay
[5] = test system: NCI-H23; experiment: Growth inhibition of human NCI-H23 cells after 48 hrs by SRB protein assay; details: NCI-H23, 48 h
[6] = test system: NCI-H460; experiment: Growth inhibition of human NCI-H460 cells after 48 hrs by SRB protein assay; details: NCI-H460, 48 h
[7] = test system: NCI-H522; experiment: Growth inhibition of human NCI-H522 cells after 48 hrs by SRB protein assay; details: NCI-H522, 48 h
[8] = test system: COLO 205; experiment: Growth inhibition of human COLO205 cells after 48 hrs by SRB protein assay; details: COLO 205, 48 h
[9] = test system: HCC 2998; experiment: Growth inhibition of human HCC2998 cells after 48 hrs by SRB protein assay; details: HCC 2998, 48 h
[10] = test system: HCT-116; experiment: Growth inhibition of human HCT116 cells after 48 hrs by SRB protein assay; details: HCT-116, 48 h
[11] = test system: HCT-15; experiment: Growth inhibition of human HCT15 cells after 48 hrs by SRB protein assay; details: HCT-15, 48 h
[12] = test system: HT-29; experiment: Growth inhibition of human HT29 cells after 48 hrs by SRB protein assay; details: HT-29, 48 h
[13] = test system: SW-620; experiment: Growth inhibition of human SW620 cells after 48 hrs by SRB protein assay; details: SW-620, 48 h
[14] = test system: SF-295; experiment: Growth inhibition of human SF295 cells after 48 hrs by SRB protein assay; details: SF-295, 48 h
[15] = test system: SF-539; experiment: Growth inhibition of human SF539 cells after 48 hrs by SRB protein assay; details: SF-539, 48 h
[16] = test system: SNB-19; experiment: Growth inhibition of human SNB19 cells after 48 hrs by SRB protein assay; details: SNB-19, 48 h
[17] = test system: SNB-75; experiment: Growth inhibition of human SNB75 cells after 48 hrs by SRB protein assay; details: SNB-75, 48 h
[18] = test system: LOX IMVI; experiment: Growth inhibition of human LOX IMVI cells after 48 hrs by SRB protein assay
[19] = test system: SK-MEL-2; experiment: Growth inhibition of human SK-MEL-2 cells after 48 hrs by SRB protein assay; details: SK-MEL-2, 48 h
[20] = test system: SK-MEL-28; experiment: Growth inhibition of human SK-MEL-28 cells after 48 hrs by SRB protein assay; details: SK-MEL-28, 48 h
[21] = test system: UACC-257; experiment: Growth inhibition of human UACC257 cells after 48 hrs by SRB protein assay; details: UACC-257, 48 h
[22] = test system: UACC-62; experiment: Growth inhibition of human UACC62 cells after 48 hrs by SRB protein assay; details: UACC-62, 48 h
[23] = test system: IGROV-1; experiment: Growth inhibition of human IGROV1 cells after 48 hrs by SRB protein assay; details: IGROV-1, 48 h
[24] = test system: OVCAR-3; experiment: Growth inhibition of human OVCAR-3 cells after 48 hrs by SRB protein assay; details: OVCAR-3, 48 h
[25] = test system: OVCAR-8; experiment: Growth inhibition of human OVCAR8 cells after 48 hrs by SRB protein assay; details: OVCAR-8, 48 h
[26] = test system: SK-OV-3; experiment: Growth inhibition of human SK-OV-3 cells after 48 hrs by SRB protein assay; details: SK-OV-3, 48 h
[27] = Growth inhibition of human 786O cells after 48 hrs by SRB protein assay; details: 786-0, 48 h
[28] = test system: ACHN; experiment: Growth inhibition of human ACHN cells after 48 hrs by SRB protein assay
[29] = test system: CAKI-1; experiment: Growth inhibition of human CAKI1 cells after 48 hrs by SRB protein assay; details: CAKI-1, 48 h
[30] = test system: RXF 393; experiment: Growth inhibition of human RXF393 cells after 48 hrs by SRB protein assay; details: RXF 393, 48 h
[31] = test system: SN12C; experiment: Growth inhibition of human SN12C cells after 48 hrs by SRB protein assay
[32] = test system: UO-31; experiment: Growth inhibition of human UO31 cells after 48 hrs by SRB protein assay; details: UO-31, 48 h
[33] = test system: PC-3; experiment: Growth inhibition of human PC3 cells after 48 hrs by SRB protein assay; details: PC-3, 48 h
[34] = test system: DU-145; experiment: Growth inhibition of human DU145 cells after 48 hrs by SRB protein assay; details: DU-145, 48 h
[35] = test system: MCF7; experiment: Growth inhibition of human MCF7 cells after 48 hrs by SRB protein assay; details: MCF7, 48 h
[36] = test system: MDA-MB-231; experiment: Growth inhibition of MDA-MB-231 cells after 48 hrs by SRB protein assay; details: Homo sapiens, MDA-MB-231, 48 h
[37] = test system: MDA-MB-435; experiment: Growth inhibition of human MDA-MB-435 cells after 48 hrs by SRB protein assay; details: MDA-MB-435, 48 h
[38] = test system: T47D; experiment: Growth inhibition of human T47D cells after 48 hrs by SRB protein assay
[39] = test system: OVCAR-5; experiment: Growth inhibition of human OVCAR5 cells after 48 hrs by SRB protein assay; details: OVCAR-5, 48 h

- GI50 [1]: 9.55 µM
- GI50 [2]: 10.2 µM
- GI50 [3]: 11.5 µM
- GI50 [5]: 19.5 µM
- GI50 [6]: > 100 µM
- GI50 [7]: 22.9 µM
- GI50 [8]: 35.5 µM
- GI50 [9]: 10 µM
- GI50 [10]: 4.57 µM
- GI50 [11]: 7.41 µM
- GI50 [12]: 16.2 µM
- GI50 [13]: 6.46 µM
- GI50 [19]: 89.1 µM
- GI50 [20]: 41.7 µM
- GI50 [24]: 15.8 µM
- GI50 [25]: 11.5 µM
- GI50 [26]: 57.5 µM
- GI50 [28]: 17 µM
- GI50 [33]: 13.5 µM
- GI50 [34]: 17.8 µM
- GI50 [35]: 29.5 µM
- GI50 [36]: 16.2 µM
- GI50 [37]: 3.98 µM
- GI50 [38]: 40.7 µM
- GI50 [39]: 50.1 µM
Structure (SMILES): COc1cccc(OC)c1/C=N/NC(=O)Cc1csc2nc(-c3ccc(Br)cc3)cn12
- TGI ([1]; read-out: Log TGI (converted)): > 100 µM
- TGI ([2]; read-out: Log TGI (converted)): > 100 µM
- TGI ([3]; read-out: Log TGI (converted)): 38.9 µM
- GI50 [4]: 17 µM
- TGI ([4]; read-out: Log TGI (converted)): 57.5 µM
- TGI ([5]; read-out: Log TGI (converted)): 52.5 µM
- TGI ([6]; read-out: Log TGI (converted)): > 100 µM
- TGI ([7]; read-out: Log TGI (converted)): > 100 µM
- TGI ([8]; read-out: Log TGI (converted)): > 100 µM
- TGI ([9]; read-out: Log TGI (converted)): 34.7 µM
- TGI ([10]; read-out: Log TGI (converted)): 15.8 µM
- TGI ([11]; read-out: Log TGI (converted)): 64.6 µM
- TGI ([12]; read-out: Log TGI (converted)): > 100 µM
- TGI ([13]; read-out: Log TGI (converted)): 49 µM
- GI50 [14]: 12.3 µM
- TGI ([14]; read-out: Log TGI (converted)): 34.7 µM
- GI50 [15]: 11.2 µM
- TGI ([15]; read-out: Log TGI (converted)): 24.5 µM
- GI50 [16]: 31.6 µM
- TGI ([16]; read-out: Log TGI (converted)): > 100 µM
- GI50 [17]: 24 µM
- TGI ([17]; read-out: Log TGI (converted)): 66.1 µM
- GI50 [18]: 12.6 µM
- TGI ([18]; read-out: Log TGI (converted)): 47.9 µM
- TGI ([19]; read-out: Log TGI (converted)): > 100 µM
- TGI ([20]; read-out: Log TGI (converted)): > 100 µM
- GI50 [21]: 24 µM
- TGI ([21]; read-out: Log TGI (converted)): 97.7 µM
- GI50 [22]: 12 µM
- TGI ([22]; read-out: Log TGI (converted)): 27.5 µM
- GI50 [23]: 3.98 µM
- TGI ([23]; read-out: Log TGI (converted)): 26.9 µM
- TGI ([24]; read-out: Log TGI (converted)): 58.9 µM
- TGI ([25]; read-out: Log TGI (converted)): 38 µM
- TGI ([26]; read-out: Log TGI (converted)): > 100 µM
- GI50 [27]: 26.3 µM
- TGI ([27]; read-out: Log TGI (converted)): > 100 µM
- TGI ([28]; read-out: Log TGI (converted)): 34.7 µM
- GI50 [29]: 12.6 µM
- TGI ([29]; read-out: Log TGI (converted)): 33.9 µM
- GI50 [30]: 19.1 µM
- TGI ([30]; read-out: Log TGI (converted)): 67.6 µM
- GI50 [31]: 20.9 µM
- TGI ([31]; read-out: Log TGI (converted)): 49 µM
- GI50 [32]: 60.3 µM
- TGI ([32]; read-out: Log TGI (converted)): > 100 µM
- TGI ([33]; read-out: Log TGI (converted)): 93.3 µM
- TGI ([34]; read-out: Log TGI (converted)): 47.9 µM
- TGI ([35]; read-out: Log TGI (converted)): > 100 µM
- TGI ([36]; read-out: Log TGI (converted)): 40.7 µM
- TGI ([37]; read-out: Log TGI (converted)): 16.2 µM
- TGI ([38]; read-out: Log TGI (converted)): > 100 µM
- TGI ([39]; read-out: Log TGI (converted)): > 100 µM

Source: ChEMBL document CHEMBL1143799, “Synthesis and primary cytotoxicity evaluation of new imidazo[2,1-b]thiazole derivatives” (2007)
